From article PMC9791135, “A penetratin-derived peptide reduces the membrane permeabilization and cell toxicity of α-synuclein oligomers” (The Journal of Biological Chemistry, 2022)
Where a SMILES comes first, the peptide text is derived from it.

Columns and labels:
α-syn [1] = biological target: T1, α-syn (Homo sapiens, UniProt P37840); assay: Far-UV CD of fibrillated α-syn–peptide samples; format: biochemical; conditions: fibrillated samples after washing, signal at 218 nm; versus α-syn alone
T1 construct: made in house; host or cells: Escherichia coli BL21 (DE3), plasmid pET11-D
Excerpt: (§1) To analyze the secondary structure of the final aggregates, we recorded far-UV CD and attenuated total reflectance (ATR)–FTIR spectra for fibrillated samples after washing to remove free α-syn and peptides. […] Overall, as the concentration of peptides increases, the intensity of signal at 218 nm decreases (Fig. 4A). We observed that α-syn fibrils formed in the presence of p194, p222, p235, and p249 precipitated rapidly after mixing with these peptides. This likely gives rise to light scattering, which reduces CD signals. To overcome these artifacts, we turned to ATR–FTIR spectroscopy, which is not sensitive to scattering. […] Both far-UV CD and ATR–FTIR spectroscopy confirm extensive β-sheet structure. However, in the presence of peptides, some structural changes were observed as reflected by the decrease in the amyloid cross β-sheet structure at ∼1629 cm^−1 and increases in the random and coil structures (∼1656 and ∼1676 cm^−1, respectively) (Table 2). […] Taking all together, ATR–FTIR data are in reasonable agreement with far-UV CD.
To remove free α-syn and peptides, fibrillated samples were centrifuged (13,000 rpm, 15 min). This leaves monomeric α-syn plus unbound and free peptides in the supernatant. The supernatant was discarded, and the pellet was washed two times in the same volume of PBS buffer, pH 7.4, to ensure complete removal of monomeric α-syn and free peptides. Far-UV CD spectra were recorded at 25 °C on a Chirascan CD Spectrophotometer (Applied Photophysics) using a 0.1 mm quartz cuvette in the wavelength range of 200 to 260 nm with 1 nm bandwidth and three accumulations. The buffer spectrum was subtracted, and the results were expressed as mean residue ellipticity [θ] (deg cm^2 dmol^−1).

α-syn [2] = biological target: T1, α-syn; assay: TEM of α-syn aggregates formed with peptides; format: biochemical; conditions: for Morphology (TEM): α-syn aggregates after incubation with peptide, versus α-syn alone; for Morphology of α-syn aggregates (TEM), in words: α-syn incubated in the presence of peptide
Description: Five microliters of each fibril-containing solution were applied to 400-mesh carbon-coated and glow-discharged nickel grids for 30 s, and blotted with filter paper to remove excess sample. The grids were washed with one drop of double distilled water and then stained with 3 μl of 1% uranyl formate for 15 s. Excess stain was removed by blotting paper This step was repeated two more times. Finally, the grids were left to air dry and viewed on a Tecnai G2 Spirit (FEI Company) operating at 60 kV, and images were taken using a TemCam F416 camera (TVIPS).

α-syn [3] = biological target: T1, α-syn; assay: ATR–FTIR of fibrillated α-syn–peptide samples; format: biochemical; conditions: for Amount of amyloid structures (ATR–FTIR), in words: fibrillated α-syn samples in the presence of peptides; for ATR–FTIR (amyloid structures): fibrillated samples after washing, versus α-syn alone
Excerpt: as §1
The samples prepared in the CD section were also used to measure FTIR spectra on a Tensor 27 FTIR spectrophotometer (Bruker). About 2 μl α-syn fibrils were dried on the ATR crystal with a gentle stream of nitrogen gas. Spectra were accumulations of 68 scans in the 4000 to 1000 cm^−1 range. Baseline correlation, second derivative, and atmospheric compensation were performed with OPUS 5.5 software (Bruker, Germany). Signals in the amide I region (∼1550–1700 cm^−1) were smoothed and deconvoluted with PeakFit, version 4.12 software (ِSystat Software Inc) using Lorentzian fitting.

α-syn [4] = biological target: T1, α-syn; assay: SDS-PAGE of soluble α-syn left in supernatant after fibrillation; format: biochemical; conditions: for Amount of soluble α-syn monomer left in the supernatant, in words: SDS-PAGE after centrifugation of fibrillated samples; for Soluble α-syn left in supernatant (SDS-PAGE gel): after end of incubation, centrifuged 13,000 rpm 15 min, versus α-syn alone
Description: Overall, there was a reasonable but not perfect correspondence between SDS-PAGE and ThT data.
To determine the amount of soluble α-syn, fibrillated samples were centrifuged (13,000 rpm, 15 min) and the supernatants were loaded on Bis–Tris 15% acrylamide gel with prestained protein ladder (Thermo Scientific) and run in a Bis–Tris running buffer at 150 V for 70 min, stained for 20 min in Coomassie brilliant blue (1.2 mM Coomassie brilliant blue, 5% ethanol, and 7% acetic acid), and destained overnight in a destaining solution (5% ethanol and 5% acetic acid). Gel bands were quantified using ImageJ.

[5] = Calcein release assay, substance alone; conditions: for Peptide concentration from which membrane toxicity is shown: peptide alone, calcein-filled DOPG LUVs, tested range 10^−1–10^−6 mg/ml
Description: αSOs show cytotoxic properties, which have been attributed to their membrane-disrupting ability ([69]). To examine the effect of peptides on membrane permeabilization by αSOs, we used a simple calcein release assay. αSOs, peptides, and aSO–peptide mixtures at 10^−6 to 10^−1 mg/ml peptide were added to calcein-loaded DOPG vesicle, and the extent of calcein release was monitored for 30 min by the increase in fluorescence as calcein leaks out upon membrane permeabilization, leading to dilution and the loss of self-quenching. The time-dependent calcein release data from DOPG vesicles ([70], [71]) in the presence of peptides, αSOs, and αSO–peptides are shown in Figs. S9 and S10. In order to allow easy comparison of all peptides, the calcein release versus concentration (peptides and αSOs) were plotted at the plateau point of release (Fig. 5, A–C). […] Figure 5D compares calcein release percentages of data represented in Figure 5, A and B at peptide concentrations between 0.001 and 0.1 mg/ml, where we see the largest extent of calcein release in general.
Calcein-filled vesicles of DOPG were prepared as described before ([38]). Briefly, DOPG was dissolved in PBS to […], in the presence of calcein at self-quenching concentrations (70 mM) and subjected to 10 freeze–thaw cycles between liquid nitrogen and a 50 °C water bath. After 21 times extrusion through a 100 nm filter, free calcein was separated from vesicles with a PD-10 desalting column (GE Healthcare). Vesicles were stored at 4 °C and used for calcein release assays within 24 h.
Calcein release was measured by mixing peptides and/or αSOs at a final concentration of 10^−6 to 10^−1 mg/ml and 5.2 μg/ml, respectively, in 148 μl with 2 μl of calcein vesicles, and were then loaded onto a 96-well plate (Nunc, Thermo Fischer Scientific) in triplicate. The plate was sealed with Crystal clear sealing tape (Hampton Research), and fluorescence was measured (excitation: 485 nm and emission: 520 nm) for 1 h at 37 °C every 2 min with a 2 s autoshake before each reading on a fluorescence plate reader (Tecan). Finally, 2 μl Triton X-100 (0.2% [v/v]) was added to lyse vesicles, and the maximal fluorescence signal was measured for 20 min under the same reading condition. Background fluorescence was subtracted, and the average signal of calcein release before addition of Triton X-100 (F), after treatment with Triton X-100 (Ft) and for the buffer control (F0) were determined, and calcein release percentage was calculated as follow (Equation 1):(1) CalceinRelease%(CR%)=(F−F0)/(Ft−F0)

Compound	Far-UV CD (β-sheet structures) (α-syn [1])	Morphology (TEM) (α-syn [2])	Morphology of α-syn aggregates (TEM), in words (α-syn [2])	Amount of amyloid structures (ATR–FTIR), in words (α-syn [3])	Amount of soluble α-syn monomer left in the supernatant, in words (α-syn [4])	Permeabilization of lipid vesicles by peptide alone ([5]; calcein-loaded DOPG vesicles, 10^−6 to 10^−1 mg/ml peptide, 37 °C, triplicate)	ATR–FTIR (amyloid structures) (α-syn [3])	Peptide concentration from which membrane toxicity is shown [5]	Soluble α-syn left in supernatant (SDS-PAGE gel) (α-syn [4])
CC(C)C[C@H](NC(=O)[C@H](Cc1c[nH]cn1)NC(=O)[C@H](CO)NC(=O)[C@H](CO)NC(=O)[C@H](C)NC(=O)[C@@H](N)CO)C(=O)N[C@@H](Cc1c[nH]cn1)C(=O)N[C@@H](Cc1c[nH]cn1)C(=O)NCC(=O)N[C@@H](Cc1c[nH]cn1)C(=O)N[C@@H](CO)C(=O)NCC(=O)NCC(=O)O [p168] (H-SASSHLHHGHSGG-OH)	↓↓β	L, T, I	longer and thinner fibrils	did not show significant changes in FTIR spectra	decrease solubility	did not permeabilize lipid vesicles			
CC[C@H](C)[C@H](NC(=O)[C@H](Cc1c[nH]c2ccccc12)NC(=O)[C@H](CCCNC(=N)N)NC(=O)[C@H](Cc1c[nH]c2ccccc12)NC(=O)[C@H](CCCCN)NC(=O)[C@@H](NC(=O)[C@H](CCCCN)NC(=O)[C@H](CCC(N)=O)NC(=O)[C@@H](N)CC(N)=O)[C@@H](C)CC)C(=O)N[C@@H](CCC(N)=O)C(=O)N[C@@H](CCCNC(=N)N)C(=O)N[C@@H](Cc1ccccc1)C(=O)N[C@@H](CCCNC(=N)N)C(=O)N[C@@H](CCCCN)C(=O)N[C@@H](CCCCN)C(=O)N[C@@H](CCSC)C(=O)O [p235] (H-NQKIKWRWIQRFRKKM-OH; N-terminus and C-terminus assumed)	↓↓↓β		nonfibrillar (amorphous) accumulations	decreased			↓↓↓ amyl	> 10^−2 mg/ml	
CC[C@H](C)[C@H](NC(=O)[C@H](Cc1ccccc1)NC(=O)[C@H](Cc1c[nH]c2ccccc12)NC(=O)[C@H](CCCNC(=N)N)NC(=O)[C@H](CC(N)=O)NC(=O)[C@@H](NC(=O)[C@H](CCC(N)=O)NC(=O)[C@H](CCCCN)NC(=O)[C@@H](N)CCSC)[C@@H](C)CC)C(=O)N[C@@H](CCCNC(=N)N)C(=O)N[C@@H](Cc1c[nH]c2ccccc12)C(=O)N[C@@H](CCC(N)=O)C(=O)N[C@@H](CCCCN)C(=O)N[C@@H](CCCCN)C(=O)N[C@@H](CCCNC(=N)N)C(=O)N[C@@H](CCCCN)C(=O)O [p249] (H-MKQINRWFIRWQKKRK-OH; N-terminus and C-terminus assumed)	↓↓↓β		nonfibrillar (amorphous) accumulations	decreased	decrease solubility		↓↓↓ amyl	> 10^−2 mg/ml	↓↓
RQIKIWFQNRRFKWKK [p222, penetratin with modulated hydrophobicity]	↓↓↓β	S, N	needle-shaped and short fibrils	decreased	decrease solubility		↓↓ amyl	> 10^−4 mg/ml	↓↓
